Data on eight compounds can be found in ChEMBL document CHEMBL5321294, “Evolution of Slow-Binding Inhibitors Targeting Histone Deacetylase Isoforms” (J Med Chem, 2023).

Assay [1] addresses T1, Histone deacetylase 1 (Homo sapiens, UniProt Q13547). The assay is described as follows: Binding affinity to HDAC1 (unknown origin) assessed as inhibition constant.
Assay [2] has as its target T2, Histone deacetylase 3 (Homo sapiens, UniProt O15379). Nature of the assay: Binding affinity to human HDAC3 using Acetyl-Lys(Ac)-AMC as substrate assessed as binding constant (k-1).
For assay [3], the target named is T2, Histone deacetylase 3. The assay is described as follows: Binding affinity to HDAC3 (unknown origin) assessed as inhibition constant.
For assay [4], the species on record is Homo sapiens. Nature of the assay: Selectivity ratio of Ki for human HDAC3 using Acetyl-Lys(Ac)-AMC as substrate to Ki for HDAC1 using Acetyl-Lys(Ac)-AMC as substrate.
The target in assay [5] is T2, Histone deacetylase 3.
Description: Binding affinity to HDAC3 (unknown origin) using Ac-LGKac-AMC as substrate assessed as half life
The target in assay [6] is T1, Histone deacetylase 1.
Assay [7] deals with T1, Histone deacetylase 1. The source holds these as a separate data set.
Description: Binding affinity to HDAC1 (unknown origin) using Ac-LGKac-AMC as substrate assessed as half life
The target in assay [8] is T1, Histone deacetylase 1. This is another data set of the same source.
Assay [9] concerns the target T2, Histone deacetylase 3. Nature of the assay: Binding affinity to HDAC3 (unknown origin) assessed as binding constant(k-2).
Assay [10] has as its target T2, Histone deacetylase 3. Nature of the assay: Binding affinity to HDAC3 (unknown origin) assessed as binding constant(k2).
The target in assay [11] is T2, Histone deacetylase 3. Nature of the assay: Binding affinity to HDAC3 (unknown origin) assessed as residence time.
The species named for assay [12] is Homo sapiens. Nature of the assay: Selectivity index, ratio of IC50 for Inhibition of human HDAC3 to Inhibition of human IC50 for HDAC2.
Assay [13] concerns the target T3, Histone deacetylase 2 (Homo sapiens, UniProt Q92769). The assay is described as follows: Binding affinity to human HDAC2 assessed as half life.
In assay [14] the target is T1, Histone deacetylase 1. The assay is described as follows: Binding affinity to human HDAC1 assessed as half life.
For assay [15], the species on record is Homo sapiens. The assay is described as follows: Selectivity index, ratio of IC50 for Inhibition of human HDAC3 to IC50 for Inhibition of human HDAC1.
Assay [16] addresses T2, Histone deacetylase 3. Nature of the assay: Binding affinity to human HDAC3 assessed as half life.
Assay [17] has as its target T2, Histone deacetylase 3. The assay is described as follows: Binding affinity to human HDAC3 assessed as residence time.
Assay [18] has as its target T2, Histone deacetylase 3. Nature of the assay: Binding affinity to human HDAC3 assessed as dissociation rate constant (Koff).
Assay [19] concerns the target T2, Histone deacetylase 3. Nature of the assay: Binding affinity to human HDAC3 assessed as binding rate constant (Kon).
Assay [20] has as its target T3, Histone deacetylase 2. Nature of the assay: Binding affinity to human HDAC2 assessed as residence time.
Assay [21] deals with T2, Histone deacetylase 3. Nature of the assay: Inhibition of HDAC3 (unknown origin) measured after 24 hrs by fluorescence based assay.
Assay [22] concerns the target T3, Histone deacetylase 2. Nature of the assay: Inhibition of HDAC2 (unknown origin) measured after 24 hrs by fluorescence based assay.
The target of assay [23] is T2, Histone deacetylase 3. Nature of the assay: Inhibition of HDAC3 (unknown origin) measured after 1 hrs by fluorescence based assay.
Assay [24] deals with T1, Histone deacetylase 1. Nature of the assay: Inhibition of HDAC1 (unknown origin) measured after 24 hrs by fluorescence based assay.
Assay [25] addresses T3, Histone deacetylase 2. Nature of the assay: Inhibition of HDAC2 (unknown origin) measured after 1 hrs by fluorescence based assay.
Assay [26] concerns the target T1, Histone deacetylase 1. Nature of the assay: Inhibition of HDAC1 (unknown origin) measured after 1 hrs by fluorescence based assay.
The target of assay [27] is T4, Histone deacetylase 8 (Homo sapiens, UniProt Q9BY41).
T4 sequence (Q9BY41 whole entry): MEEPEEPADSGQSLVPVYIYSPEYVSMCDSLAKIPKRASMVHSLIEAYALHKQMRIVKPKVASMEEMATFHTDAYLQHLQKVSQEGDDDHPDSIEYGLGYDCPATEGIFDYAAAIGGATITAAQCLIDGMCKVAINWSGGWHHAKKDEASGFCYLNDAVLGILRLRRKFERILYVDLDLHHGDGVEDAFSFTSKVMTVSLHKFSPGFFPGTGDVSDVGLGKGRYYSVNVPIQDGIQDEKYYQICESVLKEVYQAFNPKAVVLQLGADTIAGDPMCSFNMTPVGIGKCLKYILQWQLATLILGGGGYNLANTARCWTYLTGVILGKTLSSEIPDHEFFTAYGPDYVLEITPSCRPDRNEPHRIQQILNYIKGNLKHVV
Nature of the assay: Binding affinity to HDAC8 (unknown origin) assessed as inhibition constant(ki,1).

The target of assay [28] is T4, Histone deacetylase 8. Nature of the assay: Binding affinity to HDAC8 (unknown origin) assessed as inhibition constant.
Assay [29] has as its target T1, Histone deacetylase 1. The assay is described as follows: Binding affinity to human HDAC1 using AcLGK (Ac) -AMC as substrate assessed as residence time.

pIC50, pKi: −log10 of the molar value.

T2 sequence (O15379 whole entry): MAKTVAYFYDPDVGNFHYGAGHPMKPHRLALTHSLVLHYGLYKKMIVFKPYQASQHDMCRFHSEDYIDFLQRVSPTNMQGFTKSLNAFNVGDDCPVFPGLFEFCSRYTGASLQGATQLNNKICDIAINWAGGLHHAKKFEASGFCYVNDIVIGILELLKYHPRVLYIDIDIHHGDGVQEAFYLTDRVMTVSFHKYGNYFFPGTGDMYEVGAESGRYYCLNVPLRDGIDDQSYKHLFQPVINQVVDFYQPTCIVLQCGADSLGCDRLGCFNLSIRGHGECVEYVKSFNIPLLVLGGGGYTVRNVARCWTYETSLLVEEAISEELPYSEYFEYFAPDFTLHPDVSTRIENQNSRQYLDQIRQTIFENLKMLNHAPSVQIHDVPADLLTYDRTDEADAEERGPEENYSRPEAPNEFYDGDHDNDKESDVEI
T1 sequence (Q13547 whole entry): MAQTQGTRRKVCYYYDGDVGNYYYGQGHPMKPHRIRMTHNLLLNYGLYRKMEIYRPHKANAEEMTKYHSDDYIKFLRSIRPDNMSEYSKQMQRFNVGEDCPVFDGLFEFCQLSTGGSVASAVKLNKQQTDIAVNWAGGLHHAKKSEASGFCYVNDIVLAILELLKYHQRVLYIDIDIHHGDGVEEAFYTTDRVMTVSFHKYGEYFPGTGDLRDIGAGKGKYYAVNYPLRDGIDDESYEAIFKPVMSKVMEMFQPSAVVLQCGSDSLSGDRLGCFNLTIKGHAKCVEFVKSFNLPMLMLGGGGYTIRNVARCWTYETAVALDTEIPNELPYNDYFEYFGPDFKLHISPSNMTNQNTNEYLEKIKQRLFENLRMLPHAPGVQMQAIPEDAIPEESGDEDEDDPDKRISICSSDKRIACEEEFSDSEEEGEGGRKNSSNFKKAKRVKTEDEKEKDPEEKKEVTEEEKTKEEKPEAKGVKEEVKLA
T3 sequence (Q92769 whole entry): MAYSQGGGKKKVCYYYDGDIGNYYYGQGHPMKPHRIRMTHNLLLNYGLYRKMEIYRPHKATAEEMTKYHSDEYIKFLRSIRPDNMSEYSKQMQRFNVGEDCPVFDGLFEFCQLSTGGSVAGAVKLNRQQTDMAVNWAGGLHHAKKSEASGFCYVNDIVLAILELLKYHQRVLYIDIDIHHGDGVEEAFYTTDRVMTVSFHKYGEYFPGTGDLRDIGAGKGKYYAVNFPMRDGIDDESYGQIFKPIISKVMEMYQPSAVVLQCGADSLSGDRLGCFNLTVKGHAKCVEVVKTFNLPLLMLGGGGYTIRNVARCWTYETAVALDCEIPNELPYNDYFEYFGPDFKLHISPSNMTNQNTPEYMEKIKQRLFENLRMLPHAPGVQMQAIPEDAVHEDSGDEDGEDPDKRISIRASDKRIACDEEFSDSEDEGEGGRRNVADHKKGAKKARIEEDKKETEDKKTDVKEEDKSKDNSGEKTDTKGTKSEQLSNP

As to `Nc1ccc(-c2ccccc2)cc1NC(=O)CCCCCC(=O)Nc1ccccc1`, the results for the pKi in assay [1] and in assay [3] were 8.15 and 5.60, respectively. In assay [2], the K turned out to be 0.002 min⁻¹. Besides, the Ratio Ki in assay [4] stood at 350.

As to `C/C=C1\NC(=O)[C@H]2CSSCC/C=C/[C@H](CC(=O)N[C@H](C(C)C)C(=O)N2)OC(=O)[C@H](C(C)C)NC1=O` [ROMIDEPSIN], the T1/2 was greater than 1670 h in [5] and greater than 0.433 h in assay [7]. The pKi (commonly −log10 of the Ki, conventionally taken in molar units) in [6] was roughly 10.70; in assay [8], 9.06.

Regarding `CCC(=O)CCCCC[C@@H]1NC(=O)[C@H]2CCCCN2C(=O)[C@H]([C@@H](C)CC)NC(=O)[C@H](Cc2c[nH]c3ccccc23)NC1=O`, the pKi is 6.40 in assay [1] and 6.22 in assay [3].

Turning to `C[C@@H]1NC(=O)[C@H]2CCCN2C(=O)[C@H](CCCCCC(=O)[C@@H]2CO2)NC(=O)[C@@H](C)NC1=O`, the K is 0.012 min⁻¹ in assay [9] and 0.12 min⁻¹ in assay [10]. In addition, the TIME in assay [11] was found to be 1.39 h.

As to `CC(=O)Nc1ccc(C(=O)Nc2cc(-c3ccncc3)ccc2N)cc1`, the Ratio IC50 in [12] amounted to 100; in [15] it was 1040. For the same compound, the T1/2 was 30 h in assay [13], 7.17 h in assay [14] and 11.5 h in assay [16]. Besides, the TIME was found to be 10.4 h in [17] and 41.7 h in assay [20]. Moreover, the K in assay [18] was found to be 0.002 min⁻¹; in [19], 16.7 M⁻¹ s⁻¹.

For the compound `NC/C(=C\C(=O)c1ccccc1)c1ccccc1`, the pIC50 (as a rule, the negative decadic logarithm of the IC50, by convention in mol/L) in [21] is less than 4.30; in assay [22], 4.58; in [23], less than 4.30; in assay [24], 5.06; in assay [25], 4.71; in [26], 5.22.

For the compound `O=C(CCCCCCC(=O)C(F)(F)F)Nc1ccccc1`, the K is 5 10^-3/min in [9] and 0.24 min⁻¹ in assay [10]. For the same compound, the results for the pKi in assay [27] and in assay [28] were 5.14 and roughly 7.48, respectively. Besides, the TIME in assay [17] was found to be 3.33 h; in assay [20], 2.08 h.

Consider `Nc1ccc(-c2ccco2)cc1NC(=O)c1ccc(-c2cn(CS(=O)(=O)c3ccccc3)nn2)cc1`, for which, in assay [29], the TIME came to 2.42 h.
